Results: PubChem BioAssay (NCI)
Where “and” joins values, the source holds several entries; their conditions need not be identical. Equal entries are not always repeated.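 In this assay, cells in 96-well plates receive the compound at five concentrations for 48 hours. Endpoints are linearly interpolated between the surrounding concentrations. GI50 marks 50% less growth. TGI is the concentration that stops growth completely.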

Assays:
Assay in all cases: NCI tumour cell line growth inhibition, 48 h
[1] = system: RXF 393 renal
[2] = system: SW-620 colon
[3] = system: NCI-H23 lung
[4] = system: OVCAR-8 ovarian
[5] = system: SR leukemia
[6] = system: LOX IMVI melanoma
[7] = system: TK-10 renal
[8] = system: NCI-H226 lung
[9] = system: HOP-92 NSCLC
[10] = system: MDA-MB-435

SMILES | GI50 [1] | TGI [1] | GI50 [2] | TGI [2] | GI50 [3] | TGI [3] | GI50 [4] | TGI [4] | GI50 [5] | TGI [5] | GI50 [6] | TGI [6] | GI50 [7] | TGI [7] | GI50 [8] | TGI [8] | GI50 [9] | TGI [9] | TGI [10] | GI50 [10]
COc1cc(-c2nn(-c3cccc(NC(=O)c4cccc(C(F)(F)F)c4)c3)cc2-c2ccncc2)ccc1Cl | 0.812 µM | 3.15 µM | 2.31 µM | > 50 µM | 1.56 µM | 32.5 µM | 2 µM | > 50 µM | 0.838 µM | 4.59 µM | 1.39 µM | > 50 µM | 3.24 µM | > 50 µM | 1.66 µM | 27 µM | 0.554 µM | 3.12 µM |  | 
COc1cc([C@H]2c3cc(O)c(OC)cc3C[C@]3(O)[C@@H]2CO[C@@H]3O)ccc1O |  |  |  | > 100 µM |  | > 100 µM |  | > 100 µM |  | > 100 µM |  | > 100 µM |  | > 100 µM |  | > 100 µM |  | > 100 µM | > 100 µM | 
Oc1ccc(CCNc2nc3ccccc3c3[nH]c4ccccc4c23)cc1 | 1.25 µM | 2.66 µM |  |  | 1.96 µM | 4.27 µM | 1.02 µM | 2.29 µM | 1.48 µM | > 100 µM |  |  | 1.75 µM | 3.3 µM | 2.65 µM | 7.3 µM | 1.3 µM | 2.82 µM | 3.16 µM | 1.6 µM
N#Cc1c(N)nc(N2CCOCC2)c(C#N)c1-c1ccc(Cl)cc1Cl | 5.67 µM | 38.4 µM | 27.3 µM | > 100 µM | 19.7 µM | 48.4 µM | 18.2 µM | 54.5 µM |  |  | 16.7 µM | 34.2 µM |  |  | 26.9 µM | > 100 µM | 3.35 µM | 26.3 µM | 21.9 µM | 5.75 µM
CCOC(=O)/C(=C/c1ccc[nH]1)P(=O)(OCC)OCC |  | > 100 µM |  | > 100 µM |  | > 100 µM |  | > 100 µM |  | > 100 µM |  | > 100 µM |  | > 100 µM |  | > 100 µM |  | > 100 µM |  | 
CC(C)c1nc(Cl)c(Cl)c(Cl)n1 |  | 7.97 µM |  | 15.6 µM |  | 22.3 µM |  | 8.07 µM |  |  |  | 1.71 µM |  | 28.8 µM |  | 38.9 µM |  | 14.2 µM | 17.2 µM | 
COc1cc2c(cc1OCCCN1CCN(CCCn3c4ccccc4c4ccccc43)CC1)N=C[C@@H]1CCCN1C2=O |  |  | 0.0254 µM | 0.141 µM | 0.122 µM | 0.599 µM | 0.273 µM | 1.55 µM | 0.0206 µM | 12.4 µM | 0.0937 µM | 0.426 µM | 0.086 µM | 1.07 µM | 0.323 µM | 1.48 µM | 0.0283 µM | 0.173 µM | 0.121 µM | 0.0553 µM
Cc1cc2c(=O)cc(-c3ccncc3)oc2c(C(=O)O)c1C |  | > 100 µM |  | > 100 µM |  | > 100 µM |  | > 100 µM |  | > 100 µM |  | > 100 µM |  | > 100 µM |  | > 100 µM |  | > 100 µM |  | 
CN(C)C(=O)c1cc2cnc(Nc3ccc(N4CCNCC4)cn3)nc2n1C1CCCC1 |  |  | 1.21 µM | 66 µM | 13.9 µM | 63.2 µM | 23.7 µM | 89.7 µM | 3.21 µM | 38.7 µM | 4.44 µM | 26.3 µM | 4.37 µM | > 100 µM | 25.2 µM | > 100 µM | 0.867 µM | 61.6 µM | 36.6 µM | 12.7 µM
COc1ccc(Cl)cc1Nc1nc(C(F)(F)F)ccc1C(=O)N/N=C/c1ccc(Cl)cc1 | 4.56 µM | 53.2 µM | 8.2 µM | > 100 µM | 9.57 µM | 42 µM | 5.1 µM | > 100 µM |  |  | 8.08 µM | > 100 µM | 0.513 µM | 16.8 µM | 4.18 µM | > 100 µM | 11.4 µM | 67.2 µM | > 100 µM | > 100 µM
O=C(/C=C/c1ccc(OCC(=O)N2CCN(c3ccccc3)CC2)cc1)c1ccccc1 |  | 51.6 µM |  | > 28.4 µM |  | 85.6 µM |  | > 67.5 µM |  | 7.45 µM |  | 10.7 µM |  | > 79.4 µM |  | > 60.4 µM |  | > 100 µM |  | 
COc1ccc(-c2ccc(/C=N/n3c(COc4ccc(Cl)c(C)c4)nn(CN4CCOCC4)c3=S)o2)c([N+](=O)[O-])c1 | 19.1 µM | 52.7 µM | 19.9 µM | 48.9 µM | 20.2 µM | 51.6 µM | 33.5 µM | > 100 µM | 26.3 µM | 72.1 µM |  |  | 16.5 µM | 50.5 µM | > 100 µM | > 100 µM |  |  | 49.5 µM | 21 µM
N#Cc1c(N/N=C/c2c(Cl)cccc2Cl)nc(N)nc1N1CCCC1 | 2.34 µM | > 100 µM | 1.38 µM | > 100 µM | 1.16 µM | 9.11 µM | 3.53 µM | 40.5 µM | 0.795 µM | 3.03 µM | 2.16 µM | > 100 µM | 5.9 µM | > 100 µM | 11.8 µM | > 100 µM | 9.41 µM | > 100 µM |  | 
O=C(CO[N+](=O)[O-])OCC(=O)c1ccccc1 |  | > 100 µM |  | > 100 µM |  | > 100 µM |  | > 100 µM |  | > 100 µM |  | > 100 µM |  | > 100 µM |  | > 100 µM |  | > 100 µM |  | 
COc1cccc(OC)c1/C=N\N1C(=O)c2ccccc2C1=O |  | 62.1 µM |  | > 100 µM |  | > 100 µM |  | 89.3 µM |  | 74.5 µM |  | > 100 µM |  | > 100 µM |  | > 100 µM |  | > 100 µM |  | 
O=C(/C=C/N1CCN(c2cccc(Cl)c2)CC1)c1ccc(Cl)cc1 | 39.1 µM | > 100 µM | 30 µM | 99.3 µM | 39 µM | > 100 µM | 34.5 µM | > 100 µM | 26.1 µM | 59.3 µM | 32.3 µM | 96.9 µM | 30.8 µM | > 100 µM |  |  | 15.1 µM | 57.7 µM | 50.2 µM | 19.3 µM
Cc1cc2c(SCc3ccccc3Cl)nc(N)nc2nc1C |  | > 100 µM |  | > 100 µM |  | > 100 µM |  | > 100 µM |  | > 100 µM |  | > 100 µM |  | > 100 µM |  |  |  | > 100 µM | > 100 µM | 
COc1ccc(S(=O)(=O)NCCCNc2nccc(-c3c(-c4ccc(F)cc4)nc4sccn34)n2)cc1 | 3.36 µM | 76.7 µM | 24 µM | > 100 µM | 15.3 µM | > 100 µM | 4.3 µM | > 100 µM | 3.69 µM | > 100 µM | 5.53 µM | > 100 µM | 11.8 µM | > 100 µM | 6.06 µM | > 100 µM |  |  | > 100 µM | 3.28 µM
C=CCCC1(CCP(=O)(c2ccccc2)c2ccccc2)OCCO1 |  | > 100 µM |  | > 100 µM |  | > 100 µM |  | > 100 µM |  | > 100 µM |  | > 100 µM |  | > 100 µM |  |  |  |  | > 100 µM | 
COC(=O)N/N=C(\c1nc2ccc(Cl)cc2[nH]c1=O)C(O)c1ccc([N+](=O)[O-])cc1 (stereo unspecified) |  | > 100 µM |  | > 100 µM |  | > 100 µM |  | > 100 µM |  | > 100 µM |  | > 100 µM |  |  |  | > 100 µM |  | > 100 µM |  | 
Cc1c2cc[n+](C)cc2c(C)c2c1[nH]c1ccc(Oc3ccccc3)cc12 | > 100 µM and 11 µM | > 100 µM and 59.4 µM |  | > 37.9 µM and 40.6 µM | 1.73 µM |  |  | > 100 µM | 4.39 µM and 1.87 µM | > 71.9 µM and 8.31 µM | 2.96 µM | 11.3 µM and 50.1 µM | 1.55 µM and 3.43 µM | > 71.2 µM and 30.2 µM | 0.797 µM | 28 µM and 8.75 µM |  | 7.37 µM and 6.77 µM |  | 
O=C(Nc1ccccc1)Oc1ccccc1C1CCCCC1 |  | 21.9 µM |  | 72.5 µM |  | 47.1 µM |  | > 100 µM |  | 55.7 µM |  | 26.8 µM |  | > 100 µM |  | 37.6 µM |  | 31.3 µM |  | 
O=C(Nc1cccc(C(F)(F)F)c1)Nc1ccc(OCc2nnc(-c3ccccc3)o2)c(F)c1 |  |  | 4.08 µM | > 100 µM | 4.49 µM | 24.5 µM | 5.19 µM | 32.1 µM | 2.23 µM | 9.65 µM | 4.58 µM | 25.6 µM | 20.5 µM | 68.9 µM | 10.7 µM | 52 µM | 1.77 µM | 5.81 µM | 89.8 µM | 7.51 µM
COc1cccc2c(Nc3ccc(C(=O)NCCN4CCNCC4)cc3)cc(-c3ccccc3)nc12 | > 100 µM | > 100 µM | 29 µM | > 100 µM | > 100 µM | > 100 µM | 39.2 µM | > 100 µM |  |  | 20.6 µM | 45.9 µM | 57 µM | > 100 µM | > 100 µM | > 100 µM | 95 µM | > 100 µM | > 100 µM | 35.9 µM
NC(=O)NC(=O)C1CCC(=O)N1S(=O)(=O)c1ccc(Cl)cc1 (stereo unspecified) |  | > 100 µM |  | > 100 µM |  | > 100 µM |  | > 100 µM |  | > 100 µM |  |  |  | > 100 µM |  | > 100 µM |  | > 100 µM |  | 
Cc1cc(C2(c3cc(C)c(O)c4ncccc34)OC(=O)c3ccccc32)c2cccnc2c1O |  | > 100 µM | 0.0521 µM | > 100 µM | 0.0145 µM |  |  | > 100 µM |  |  |  | > 100 µM |  |  |  |  |  |  | > 100 µM | 
